Where “and” joins values, the source holds several entries; their conditions need not be identical. Identical values can stand only once.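 Exposure lasted 48 hours, with cells grown in 96-well plates and compounds tested at five concentrations. At the GI50, growth is halved. TGI is the concentration that stops growth completely.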
Experiments:
Test in all cases: inhibition of tumour cell growth, NCI panel, 48 h; in the data active = GI50 below about 0.43 µM; inactive = the rest
[1] = tested on: SW-620 colon
[2] = tested on: RPMI-8226 leukemia
[3] = tested on: CCRF-CEM leukemia
[4] = tested on: DU-145 prostate
[5] = tested on: T-47D breast
[6] = tested on: M14 melanoma
[7] = tested on: TK-10 renal
[8] = tested on: SF-539 CNS
[9] = tested on: NCI-H522 lung
[10] = tested on: HCC-2998 colon

CNC1C(O)C(OC2C(N)CC(N)C(OC3OC(C(C)O)C(O)C(O)C3N)C2O)OCC1(C)O (stereo not given)
> 100 µM: TGI [1] | TGI [2] | TGI [3] | TGI [4] | TGI [5] | TGI [6] | TGI [7] | TGI [8] | TGI [9] | TGI [10]

C/C(Cc1ccc(Cl)cc1)=C(/c1ccc(Cl)cc1)c1ccc(OCCN(C)C)cc1
inactive: GI50 [1] 1.67 µM | GI50 [2] 1.07 µM | GI50 [3] 4.17 µM | GI50 [4] 4.74 µM | GI50 [5] 3.83 µM | GI50 [6] 5.19 µM | GI50 [7] 5.1 µM | GI50 [8] 4.77 µM | GI50 [9] 5.31 µM | GI50 [10] 2.03 µM
12.9 µM: TGI [3]
10.8 µM: TGI [6] | TGI [7]
9.92 µM: TGI [5]
6.1 µM: TGI [1]
9.22 µM: TGI [8]
6.7 µM: TGI [10]
3.81 µM: TGI [2]
11.4 µM: TGI [9]
9.44 µM: TGI [4]

O=C1/C(=C/c2ccccc2)CN(C(=O)OCc2ccccc2)C/C1=C\c1ccccc1
8.4 µM and 8.56 µM: TGI [3]
0.737 µM and 0.647 µM: TGI [2]
> 100 µM: TGI [4] | TGI [5]
30.9 µM: TGI [8]
18.5 µM: TGI [9]
18.3 µM: TGI [10]
16.7 µM: TGI [6]
inactive: GI50 [1] 1.44 µM | GI50 [6] 5.89 µM
active: GI50 [2] 0.169 µM and 0.2 µM
3.72 µM and 15.5 µM: TGI [1]
> 46.2 µM: TGI [7]

Cc1nc2n(c(=O)c1CCN1CCC(c3noc4cc(F)ccc34)CC1)CCCC2
> 50 µM: TGI [1] | TGI [2] | TGI [3] | TGI [4] | TGI [5] | TGI [6] | TGI [7] | TGI [8] | TGI [9] | TGI [10]
inactive: GI50 [1] > 50 µM | GI50 [2] > 50 µM | GI50 [3] > 50 µM | GI50 [4] > 50 µM | GI50 [5] > 50 µM | GI50 [6] > 50 µM | GI50 [7] > 50 µM | GI50 [8] > 50 µM | GI50 [9] > 50 µM | GI50 [10] > 50 µM

Nc1nc(N)c2nc(CNc3ccc(C(=O)NC(CCCNC(=O)c4ccccc4C(=O)O)C(=O)O)cc3)cnc2n1 (stereo not given)
active: GI50 [1] 0.000866 µM | GI50 [3] 0.00148 µM | GI50 [6] 0.0226 µM | GI50 [7] 0.031 µM | GI50 [8] 0.00346 µM | GI50 [9] 0.016 µM | GI50 [10] 0.00132 µM
> 100 µM: TGI [1] | TGI [2] | TGI [3] | TGI [4] | TGI [5] | TGI [6] | TGI [7] | TGI [8] | TGI [9] | TGI [10]

Nc1nnc(Cn2c(-c3ccccc3)nc3ccc(Br)cc3c2=O)s1
62.8 µM: TGI [2]
83.9 µM: TGI [7]
> 100 µM: TGI [1] | TGI [4] | TGI [5] | TGI [6] | TGI [8] | TGI [9] | TGI [10]
inactive: GI50 [1] 36.1 µM | GI50 [2] 18.1 µM | GI50 [3] 16.3 µM | GI50 [4] 85.4 µM | GI50 [5] > 100 µM | GI50 [6] 49 µM | GI50 [7] 32 µM | GI50 [8] 32.9 µM | GI50 [9] 38.1 µM | GI50 [10] 42.6 µM
67.6 µM: TGI [3]

O=C1CCc2c(sc3[nH]c(=S)n(Cc4ccccc4)c(=O)c23)C1
9.79 µM: TGI [2]
5.05 µM: TGI [9]
43.9 µM: TGI [5]
10.3 µM: TGI [3]
inactive: GI50 [1] 4.2 µM | GI50 [2] 1.18 µM | GI50 [3] 2.88 µM | GI50 [4] 5.06 µM | GI50 [5] 2.41 µM | GI50 [6] 3.75 µM | GI50 [7] 4.51 µM | GI50 [8] 2.15 µM | GI50 [9] 0.852 µM | GI50 [10] 2.88 µM
14 µM: TGI [10]
> 100 µM: TGI [1] | TGI [4] | TGI [6] | TGI [7]
5.61 µM: TGI [8]

From PubChem BioAssay (NCI)
